Data as given in US20230382924A1, “MODULATORS OF CYSTIC FIBROSIS TRANSMEMBRANE CONDUCTANCE REGULATOR” (VERTEX PHARMACEUTICALS INCORPORATED, priority 2020, published 2023).

Tests used:
CFTR [1] = target: T1, CFTR (Homo sapiens, UniProt P13569); test: Membrane Potential Dye, Enteroid Assay B; assay type: cell-based; conditions: for EC50: read-out: Ent. B EC50
Description: Base medium (ADF+++) consisted of Advanced DMEM/Ham's F12, 2 mM Glutamax, 10 mM HEPES, […] penicillin/streptomycin.
Bath 1 Buffer consisted of 1 mM MgCl2, 160 mM NaCl, 4.5 mM KCl, 10 mM HEPES, 10 mM Glucose, 2 mM CaCl2).
Chloride Free Buffer consisted of 1 mM Magnesium Gluconate, 2 mM Calcium Gluconate, 4.5 mM Potassium Gluconate, 160 mM Sodium Gluconate, 10 mM HEPES, 10 mM Glucose.
Bath 1 Dye Solution consisted of Bath 1 Buffer, 0.04% Pluronic F127, 20 μM Methyl Oxonol, 30 μM CaCCinh-A01, 30 μM Chicago Sky Blue.
Chloride Free Dye Solution consisted of Chloride Free Buffer, 0.04% Pluronic F127, 20 μM Methyl Oxonol, 30 μM CaCCinh-A01, 30 μM Chicago Sky Blue.
3. Enteroid Cell Harvesting and Seeding
Cells were recovered in cell recovery solution, collected by centrifugation at 650 rpm for 5 min at 4° C., resuspended in TryPLE and incubated for 5 min at 37° C. Cells were then collected by centrifugation at 650 rpm for 5 min at 4° C. and resuspended in IEMM containing 10 μM ROCK inhibitor (RI).
5. Membrane Potential Dye, Enteroid Assay B
Briefly, cells were washed 5 times in Bath 1 Buffer. Bath 1 Dye Solution was added and the cells were incubated for 25 min at room temperature. Following dye incubation, cells were washed 3 times in Chloride Free Dye Solution. Chloride transport was initiated by addition of Chloride Free Dye Stimulation Solution and the fluorescence signal was read for 15 min.

CFTR [2] = target: T1, CFTR; test: Membrane Potential Dye, Enteroid Assay A; assay type: cell-based; conditions: for EC50: read-out: Ent. A EC50
How it was run: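 Signal is reported as % Activity relative to a triple CFTR modulator control (3 μM + 3 μM + 300 nM acute). Read-out: membrane potential fluorescence (20 μM methyl oxonol) monitored for 15 min after chloride-free stimulation. Dye loading took 25 min at room temperature in Bath 1 buffer containing CaCC blockers.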

T1 sequence (P13569 with tags, fused parts or gaps DEL508-508): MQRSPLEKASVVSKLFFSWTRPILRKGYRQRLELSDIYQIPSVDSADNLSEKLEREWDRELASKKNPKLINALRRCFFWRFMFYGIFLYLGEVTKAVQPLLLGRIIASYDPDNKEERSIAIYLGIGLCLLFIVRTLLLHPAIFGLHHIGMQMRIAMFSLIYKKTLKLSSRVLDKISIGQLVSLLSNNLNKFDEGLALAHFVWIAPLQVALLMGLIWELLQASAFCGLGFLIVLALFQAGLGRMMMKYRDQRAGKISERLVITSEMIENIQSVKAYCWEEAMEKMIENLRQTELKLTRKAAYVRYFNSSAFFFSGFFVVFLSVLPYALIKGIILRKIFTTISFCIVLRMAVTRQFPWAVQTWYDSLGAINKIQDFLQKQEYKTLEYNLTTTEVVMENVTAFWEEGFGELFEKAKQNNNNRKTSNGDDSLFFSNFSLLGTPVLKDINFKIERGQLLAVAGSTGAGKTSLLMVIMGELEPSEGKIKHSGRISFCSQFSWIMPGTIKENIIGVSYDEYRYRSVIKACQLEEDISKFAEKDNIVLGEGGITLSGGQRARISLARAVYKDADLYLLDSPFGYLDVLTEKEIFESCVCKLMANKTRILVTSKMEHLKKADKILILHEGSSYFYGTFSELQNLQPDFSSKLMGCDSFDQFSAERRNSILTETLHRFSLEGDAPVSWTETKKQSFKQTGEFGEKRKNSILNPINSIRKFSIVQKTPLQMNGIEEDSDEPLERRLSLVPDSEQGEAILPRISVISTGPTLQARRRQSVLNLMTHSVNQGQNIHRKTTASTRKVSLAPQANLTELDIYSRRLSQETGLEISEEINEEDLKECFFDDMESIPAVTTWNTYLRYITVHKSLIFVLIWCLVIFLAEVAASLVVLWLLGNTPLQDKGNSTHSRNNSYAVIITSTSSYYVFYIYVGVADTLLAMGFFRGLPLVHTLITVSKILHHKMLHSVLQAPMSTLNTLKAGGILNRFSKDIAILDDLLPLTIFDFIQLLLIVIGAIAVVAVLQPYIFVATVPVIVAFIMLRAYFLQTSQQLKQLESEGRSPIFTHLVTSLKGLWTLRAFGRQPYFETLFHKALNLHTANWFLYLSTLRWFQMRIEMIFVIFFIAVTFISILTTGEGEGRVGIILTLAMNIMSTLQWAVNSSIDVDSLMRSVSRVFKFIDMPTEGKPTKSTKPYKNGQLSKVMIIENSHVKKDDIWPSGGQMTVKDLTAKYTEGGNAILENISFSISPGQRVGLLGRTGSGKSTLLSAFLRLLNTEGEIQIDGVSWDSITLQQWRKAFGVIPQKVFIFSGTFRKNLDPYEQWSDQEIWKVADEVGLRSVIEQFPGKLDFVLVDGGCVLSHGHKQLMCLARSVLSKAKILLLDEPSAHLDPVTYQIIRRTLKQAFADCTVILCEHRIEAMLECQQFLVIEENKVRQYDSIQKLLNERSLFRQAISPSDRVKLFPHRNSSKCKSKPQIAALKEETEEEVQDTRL

| SMILES | Ent. B Max Activity (CFTR [1]; Table 9) | EC50 (CFTR [1]; Table 9) [nM] | Ent. A Max Activity (CFTR [2]; Table 9) | EC50 (CFTR [2]; Table 9) [nM] | Ent. B Max Activity (CFTR [1]; Table 8) | Ent. A Max Activity (CFTR [2]; Table 8) | EC50 (CFTR [2]; Table 8) [nM] | EC50 (CFTR [1]; Table 8) [nM] |
| --- | --- | --- | --- | --- | --- | --- | --- | --- |
| Cc1cccc(C)c1-c1cc2nc(n1)NS(=O)(=O)c1cc(n[nH]1)C(=O)N[C@H](CC(C)C)CO2 [Compound 78, (10R)-15-(2,6-dimethylphenyl)-10-isobutyl-3,3-dioxo-12-oxa-3λ^6-thia-2,5,6,9,16,17-hexazatricyclo[11.3.1.14,7]octadeca-1(17),4(18),6,13,15-pentaen-8-one] | ++ (++ is 30-60%) | 3000 to 30000 | ++ (++ is 30-60%) | 3000 to 30000 |  |  |  |  |
| Cc1cccc(C)c1-c1cc2nc(n1)NS(=O)(=O)c1cccc(c1)C(=O)N[C@@H](CC13CC4CC(CC(C4)C1)C3)CO2 (single isomer, unassigned) [Compound 110, 11-(1-adamantylmethyl)-6-(2,6-dimethylphenyl)-2,2-dioxo-9-oxa-2λ^6-thia-3,5,12,19-tetrazatricyclo[12.3.1.14,8]nonadeca-1(18),4(19),5,7,14,16-hexaen-13-one] | +++ (+++ is >60%) | < 1000 | +++ (+++ is >60%) | < 1000 |  |  |  |  |
| Cc1cccc(C)c1-c1cc2nc(n1)NS(=O)(=O)c1cccc(c1)C(=O)N[C@@H](C(CC(C)C)c1ccccc1)CO2 (stereo in doubt) [Compound 183] | +++ (+++ is >60%) | < 1000 | +++ (+++ is >60%) | < 1000 |  |  |  |  |
| Cc1cccc(C)c1-c1cc2nc(n1)NS(=O)(=O)c1cccc(c1)C(=O)NC[C@H](c1ccc(CCC(C)(C)C)cc1)O2 (stereo in doubt) [Compound 149] | +++ (+++ is >60%) | < 1000 | +++ (+++ is >60%) | < 1000 |  |  |  |  |
| Cc1cccc(C)c1-c1cc2nc(n1)NS(=O)(=O)c1cccc(c1)C(=O)NC[C@H](c1ccc(C(C)(C)C)cc1)O2 (single isomer, unassigned) [Compound 4] |  |  |  |  | + (+ is <30%) | + (+ is <30%) | 3000 to 30000 |  |
| CCC(C)(C)C(=O)N1C[C@H]2NC(=O)c3cccc(c3)S(=O)(=O)Nc3nc(cc(-c4c(C)cccc4C)n3)O[C@@H]2C1 [Compound 369] | ++ (++ is 30-60%) |  | +++ (+++ is >60%) | 3000 to 30000 |  |  |  |  |
| Cc1cccc(C)c1-c1cc2nc(n1)NS(=O)(=O)c1cccc(c1)C(=O)N[C@@H]1CN(C(C)C)C[C@H]1O2 [Compound 375] | ++ (++ is 30-60%) | 3000 to 30000 | +++ (+++ is >60%) | 3000 to 30000 |  |  |  |  |
| Cc1cccc(C)c1-c1cc2nc(n1)NS(=O)(=O)c1cccc(c1)C(=O)N[C@H](CC(C)C)[C@@H](c1ccc(C(C)(C)C)cc1)O2 (single isomer, unassigned) [Compound 40] | +++ (+++ is >60%) |  | +++ (+++ is >60%) | < 1000 |  |  |  |  |
| Cc1cccc(C)c1-c1cc2nc(n1)NS(=O)(=O)c1cccc(c1)C(=O)NC[C@H](c1ccc(/C=C/C(C)(C)C)cc1)O2 (stereo in doubt) [Compound 150] | ++ (++ is 30-60%) | < 1000 | ++ (++ is 30-60%) | < 1000 |  |  |  |  |
| Cc1cccc(C)c1-c1cc2nc(n1)NS(=O)(=O)c1cccc(c1)C(=O)N[C@@H]1CN(Cc3ccc(C(F)(F)F)cc3)C[C@H]1O2 [Compound 379] | ++ (++ is 30-60%) | < 1000 | +++ (+++ is >60%) | < 1000 |  |  |  |  |
| Cc1cccc(C)c1-c1cc2nc(n1)NS(=O)(=O)c1cccc(c1)C(=O)N[C@@H]1CN(CCC3(C(F)(F)F)CC3)C[C@H]1O2 [Compound 378] | +++ (+++ is >60%) | < 1000 | +++ (+++ is >60%) | < 1000 |  |  |  |  |
| Cc1cccc(Cc2cccc(C)c2-c2cc3nc(n2)NS(=O)(=O)c2cccc(c2)C(=O)N[C@H](CC(C)C)CO3)c1 [Compound 170] | +++ (+++ is >60%) | < 1000 | +++ (+++ is >60%) | < 1000 |  |  |  |  |
| Cc1cccc(C)c1-c1cc2nc(n1)NS(=O)(=O)c1cccc(c1)C(=O)NCC(c1ccc(C3(C(F)(F)F)CC3)cc1)O2 (single isomer, unassigned) [Compound 11, 6-(2,6-Dimethylphenyl)-2,2-dioxo-10-[4-[1-(trifluoromethyl)cyclopropyl]phenyl]-9-oxa-2λ^6-thia-3,5,12,19-tetrazatricyclo[12.3.1.14,8]nonadeca-1(18),4(19),5,7,14,16-hexaen-13-one] |  |  |  |  | +++ (+++ is >60%) | +++ (+++ is >60%) | < 1000 | < 1000 |
| Cc1cccc(C)c1-c1cc2nc(n1)NS(=O)(=O)c1cccc(c1)C(=O)N[C@@H]1CN(CCC(C)(C)C)C[C@H]1O2 [Compound 64, (3R,7R)-5-(3,3-Dimethylbutyl)-19-(2,6-dimethylphenyl)-2-oxa-15λ^6-thia-5,8,16,18,21-pentaazatetracyclo[15.3.1.110,14.03,7]docosa-1(20),10(22),11,13,17(21),18-hexaene-9,15,15-trione] | ++ (++ is 30-60%) | < 1000 | +++ (+++ is >60%) | < 1000 |  |  |  |  |
| Cc1cccc(C)c1-c1cc2nc(n1)NS(=O)(=O)c1cccc(c1)C(=O)NC[C@@H](c1ccc(CCC3(C(F)(F)F)CC3)cc1)O2 [Compound 146] | +++ (+++ is >60%) | < 1000 | +++ (+++ is >60%) | < 1000 |  |  |  |  |
| Cc1cccc(C)c1-c1cc2nc(n1)NS(=O)(=O)c1cccc(c1)C(=O)N[C@@H]1CN(Cc3ccc(C(C)(C)C)cc3)C[C@H]1O2 [Compound 63, (3R,7R)-5-[(4-tert-Butylphenyl)methyl]-19-(2,6-dimethylphenyl)-2-oxa-15λ^6-thia-5,8,16,18,21-pentaazatetracyclo[15.3.1.110,14.03,7]docosa-1(20),10(22),11,13,17(21),18-hexaene-9,15,15-trione] | +++ (+++ is >60%) | < 1000 | +++ (+++ is >60%) | < 1000 |  |  |  |  |
| C=CCCCCC[C@@H]1COc2cc(-c3ccccc3C=C)nc(n2)NS(=O)(=O)c2cccc(c2)C(=O)N1 [Compound 220] | +++ (+++ is >60%) | < 1000 |  |  |  |  |  |  |
| O=C1N[C@@H]2CCCC/C=C/c3ccccc3-c3cc(nc(n3)NS(=O)(=O)c3cccc1c3)OC2 [Compound 219] | +++ (+++ is >60%) | < 1000 |  |  |  |  |  |  |
| Cc1cccc(O)c1-c1cc2nc(n1)NS(=O)(=O)c1cccc(c1)C(=O)N[C@H](CC(C)C)CO2 [Compound 163] | ++ (++ is 30-60%) | 3000 to 30000 |  |  |  |  |  |  |
| Cc1cccc(/C=C/C(C)C)c1-c1cc2nc(n1)NS(=O)(=O)c1cccc(c1)C(=O)N[C@H](CC(C)C)CO2 [Compound 390] | +++ (+++ is >60%) | < 1000 |  |  |  |  |  |  |
| Cc1cccc(C)c1-c1cc2nc(n1)NS(=O)(=O)c1cccc(c1)C(=O)N[C@H](C)[C@H](C)O2 [Compound 483] | + (+ is <30%) | 1000 to 3000 |  |  |  |  |  |  |
| Cc1cccc(CCC2CC2)c1-c1cc2nc(n1)NS(=O)(=O)c1cccc(c1)C(=O)N[C@H](CC(C)C)CO2 [Compound 391] | +++ (+++ is >60%) | < 1000 |  |  |  |  |  |  |
| O=C1N[C@@H]2CCCCCCCCc3ccccc3-c3cc(nc(n3)NS(=O)(=O)c3cccc1c3)OC2 [Compound 37, (18R)-30-Oxa-26λ^6-thia-19,27,29,32-tetraazapentacyclo[16.11.2.13,28.121,25.04,9]tritriaconta-1,3(32),4(9),5,7,21(33),22,24,28-nonaene-20,26,26-trione] | +++ (+++ is >60%) | < 1000 |  |  |  |  |  |  |
| CC(C)C[C@@H]1COc2cc(C3(C)CC3)nc(n2)NS(=O)(=O)c2cccc(c2)C(=O)N1 [Compound 164] | + (+ is <30%) |  |  |  |  |  |  |  |
| O=C1N[C@@H]2CCCCCCc3ccccc3-c3cc(nc(n3)NS(=O)(=O)c3cccc1c3)OC2 [Compound 216] | +++ (+++ is >60%) | < 1000 |  |  |  |  |  |  |
| C=CCCCC[C@@H]1COc2cc(-c3ccccc3C=C)nc(n2)NS(=O)(=O)c2cccc(c2)C(=O)N1 [Compound 221] | +++ (+++ is >60%) | < 1000 |  |  |  |  |  |  |
| Cc1cccc(C)c1-c1cc2nc(n1)NS(=O)(=O)c1cccc(c1)C(=O)NC[C@H](c1ccc(CC[Si](C)(C)C)cc1)O2 (stereo in doubt) [Compound 123] |  | < 1000 |  |  |  |  |  |  |
